Experimental data as given in PubChem BioAssay AID248 (DTP/NCI, 2004).
“And” between values parts separate entries of the source, which are not always exact repeats. Equal entries are not always repeated. Inconclusive results and toxic doses are left out.

System: L1210 leukemia ip in BDF1 mice, survival T/C
Test: NCI In Vivo Anticancer Drug Screen. Data for tumor model L1210 Leukemia (intraperitoneal) in B6D2F1 (BDF1) mice
Settings: endpoint: mean survival time, higher = longer survival
Outline: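 Tumor cells were implanted, animals were treated, and survival was followed. The result divides the treated measurement by the vehicle-control measurement.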

[1] = dose: 25.0 mg/kg/injection, schedule: Q04DX002 (ip), vehicle: Klucel (hydroxypropylcellulose) (HPC)
[2] = dose: 50.0 mg/kg/injection, schedule: Q04DX002 (ip), vehicle: Klucel (hydroxypropylcellulose) (HPC)
[3] = dose: 100.0 mg/kg/injection, schedule: Q04DX002 (ip), vehicle: Klucel (hydroxypropylcellulose) (HPC)
[4] = dose: 200.0 mg/kg/injection, schedule: Q04DX002 (ip), vehicle: Klucel (hydroxypropylcellulose) (HPC)
[5] = dose: 400.0 mg/kg/injection, schedule: Q04DX002 (ip), vehicle: Klucel (hydroxypropylcellulose) (HPC)
[6] = dose: 50.0 mg/kg/injection, schedule: Q01DX009 (ip), vehicle: saline with Tween-80
[7] = dose: 100.0 mg/kg/injection, schedule: Q01DX009 (ip), vehicle: saline with Tween-80
[8] = dose: 200.0 mg/kg/injection, schedule: Q01DX009 (ip), vehicle: saline with Tween-80
[9] = dose: 100.0 mg/kg/injection, schedule: Q01DX001 (ip), vehicle: carboxymethylcellulose (CMC)
[10] = dose: 200.0 mg/kg/injection, schedule: Q01DX001 (ip), vehicle: carboxymethylcellulose (CMC)
[11] = dose: 400.0 mg/kg/injection, schedule: Q01DX001 (ip), vehicle: carboxymethylcellulose (CMC)
[12] = dose: 50.0 mg/kg/injection, schedule: Q01DX001 (ip), vehicle: carboxymethylcellulose (CMC)
[13] = dose: 100.0 mg/kg/injection, schedule: Q01DX009 (ip), vehicle: Klucel (hydroxypropylcellulose) (HPC)
[14] = dose: 200.0 mg/kg/injection, schedule: Q01DX009 (ip), vehicle: Klucel (hydroxypropylcellulose) (HPC)
[15] = dose: 100.0 mg/kg/injection, schedule: Q04DX003 (ip), vehicle: saline with Tween-80
[16] = dose: 200.0 mg/kg/injection, schedule: Q04DX003 (ip), vehicle: saline with Tween-80
[17] = dose: 50.0 mg/kg/injection, schedule: Q04DX003 (ip), vehicle: saline

SMILES: CCP(C)(C)=S
- T/C [1]: 101 % of control
- T/C [2]: 101 % of control
- T/C [3]: 108 % of control

SMILES: O=C(O)CCn1c(=O)n(CCC(=O)O)c(=O)n(CCC(=O)O)c1=O
- T/C [3]: 100 % of control
- T/C [4]: 93 % of control
- T/C [5]: 86 % of control

SMILES: O=C1C2=C(C(=O)c3ccccc31)C(=O)C1CC=CCC1C2=O (stereo not drawn)
- T/C (dose: 0.25 mg/kg/injection, schedule: Q04DX003 (ip), vehicle: saline with Tween-80): 102 % of control
- T/C (dose: 0.5 mg/kg/injection, schedule: Q04DX003 (ip), vehicle: saline with Tween-80): 104 % of control
- T/C (dose: 1.0 mg/kg/injection, schedule: Q04DX003 (ip), vehicle: saline with Tween-80): 98 % of control
- T/C (dose: 2.0 mg/kg/injection, schedule: Q04DX003 (ip), vehicle: saline with Tween-80): 96 % of control
- T/C (dose: 4.0 mg/kg/injection, schedule: Q04DX003 (ip), vehicle: saline with Tween-80): 110 % of control
- T/C (dose: 8.0 mg/kg/injection, schedule: Q04DX003 (ip), vehicle: saline with Tween-80): 100 % of control and 105 % of control
- T/C (dose: 16.0 mg/kg/injection, schedule: Q04DX003 (ip), vehicle: saline with Tween-80): 102 % of control and 103 % of control
- T/C (dose: 25.0 mg/kg/injection, schedule: Q01DX009 (ip), vehicle: saline with Tween-80): 106 % of control
- T/C (dose: 32.0 mg/kg/injection, schedule: Q04DX003 (ip), vehicle: saline with Tween-80): 103 % of control
- T/C [6]: 106 % of control
- T/C (dose: 64.0 mg/kg/injection, schedule: Q04DX003 (ip), vehicle: saline with Tween-80): 97 % of control and 105 % of control
- T/C [7]: 110 % of control
- T/C (dose: 128.0 mg/kg/injection, schedule: Q04DX003 (ip), vehicle: saline with Tween-80): 105 % of control
- T/C [8]: 101 % of control
- T/C (dose: 256.0 mg/kg/injection, schedule: Q04DX003 (ip), vehicle: saline with Tween-80): 94 % of control

SMILES: CCN=C(N)CSS(=O)(=O)O
- T/C [1]: 100 % of control
- T/C [2]: 97 % of control
- T/C [3]: 95 % of control and 110 % of control

SMILES: CCCN1CCC(C(=O)CC)(c2cccc(O)c2)CC1
- T/C [3]: 106 % of control
- T/C [4]: 106 % of control

SMILES: C1CCC(=NN=C2CCCCC2)CC1
- T/C (dose: 100.0 mg/kg/injection, schedule: Q01DX009 (sc), vehicle: olive oil, sesame oil, peanut oil): 103 % of control
- T/C (dose: 100.0 mg/kg/injection, schedule: Q04DX003 (sc), vehicle: olive oil, sesame oil, peanut oil): 100 % of control
- T/C (dose: 200.0 mg/kg/injection, schedule: Q01DX009 (sc), vehicle: olive oil, sesame oil, peanut oil): 100 % of control
- T/C (dose: 200.0 mg/kg/injection, schedule: Q04DX003 (sc), vehicle: olive oil, sesame oil, peanut oil): 106 % of control
- T/C (dose: 400.0 mg/kg/injection, schedule: Q01DX009 (sc), vehicle: olive oil, sesame oil, peanut oil): 101 % of control
- T/C (dose: 400.0 mg/kg/injection, schedule: Q04DX003 (sc), vehicle: olive oil, sesame oil, peanut oil): 105 % of control

SMILES: COC1C(COC(C)=O)OC(n2cnc3c(=S)nc[nH]c32)C1OC(C)=O (stereo not drawn)
- T/C [9]: 114 % of control
- T/C [10]: 104 % of control
- T/C [11]: 111 % of control

SMILES: OC1C2C3CCC(CC3)C2C(C2OCCO2)C2C3CCC(C3)C12 (stereo not drawn)
- T/C [6]: 96 % of control
- T/C [7]: 96 % of control
- T/C [8]: 89 % of control

SMILES: Cc1ccc(NC(=O)N(CCCl)N=O)cc1
- T/C (dose: 0.5 mg/kg/injection, schedule: Q01DX015 (ip), vehicle: carboxymethylcellulose (CMC)): 103 % of control
- T/C (dose: 1.0 mg/kg/injection, schedule: Q01DX015 (ip), vehicle: carboxymethylcellulose (CMC)): 107 % of control
- T/C (dose: 5.2 mg/kg/injection, schedule: Q01DX015 (ip), vehicle: carboxymethylcellulose (CMC)): 169 % of control
- T/C (dose: 9.0 mg/kg/injection, schedule: Q01DX015 (ip), vehicle: carboxymethylcellulose (CMC)): 165 % of control
- T/C (dose: 15.0 mg/kg/injection, schedule: Q01DX015 (ip), vehicle: carboxymethylcellulose (CMC)): 206 % of control
- T/C (dose: 22.0 mg/kg/injection, schedule: Q01DX001 (ip), vehicle: carboxymethylcellulose (CMC)): 161 % of control
- T/C (dose: 25.0 mg/kg/injection, schedule: Q01DX015 (ip), vehicle: carboxymethylcellulose (CMC)): 152 % of control
- T/C (dose: 33.0 mg/kg/injection, schedule: Q01DX001 (ip), vehicle: carboxymethylcellulose (CMC)): 152 % of control
- T/C [12]: 171 % of control and 197 % of control
- T/C (dose: 75.0 mg/kg/injection, schedule: Q01DX001 (ip), vehicle: carboxymethylcellulose (CMC)): 118 % of control
- T/C [9]: 86 % of control

SMILES: CCN(CC)c1ccc(-c2nc3ccccc3s2)cc1
- T/C (dose: 50.0 mg/kg/injection, schedule: Q04DX003 (ip), vehicle: Klucel (hydroxypropylcellulose) (HPC)): 99 % of control
- T/C (dose: 100.0 mg/kg/injection, schedule: Q04DX003 (ip), vehicle: Klucel (hydroxypropylcellulose) (HPC)): 94 % of control
- T/C (dose: 200.0 mg/kg/injection, schedule: Q04DX003 (ip), vehicle: Klucel (hydroxypropylcellulose) (HPC)): 91 % of control

SMILES: CCCCC1CN2CCc3cc(OC)c(OC)cc3C2CC1=O (stereo not drawn)
- T/C (dose: 50.0 mg/kg/injection, schedule: Q01DX009 (ip), vehicle: Klucel (hydroxypropylcellulose) (HPC)): 96 % of control and 97 % of control
- T/C [13]: 89 % of control and 103 % of control
- T/C [14]: 94 % of control and 96 % of control
- T/C (dose: 400.0 mg/kg/injection, schedule: Q01DX009 (ip), vehicle: Klucel (hydroxypropylcellulose) (HPC)): 97 % of control

SMILES: c1ccc2c(c1)Cc1c(-c3ccncc3)n[nH]c1-2
- T/C [15]: 93 % of control
- T/C [16]: 96 % of control
- T/C (dose: 400.0 mg/kg/injection, schedule: Q04DX003 (ip), vehicle: saline with Tween-80): 86 % of control

SMILES: CC(c1ccccc1)C(C(=O)O)C(=O)O (stereo not drawn)
- T/C [12]: 100 % of control
- T/C [9]: 96 % of control
- T/C [10]: 96 % of control
- T/C [11]: 97 % of control

SMILES: NC(=S)Nc1ccccc1
- T/C (dose: 5.0 mg/kg/injection, schedule: Q01DX001 (ip), vehicle: saline): 100 % of control
- T/C (dose: 10.0 mg/kg/injection, schedule: Q01DX001 (ip), vehicle: saline): 96 % of control
- T/C (dose: 20.0 mg/kg/injection, schedule: Q01DX001 (ip), vehicle: saline): 102 % of control
- T/C (dose: 40.0 mg/kg/injection, schedule: Q01DX001 (ip), vehicle: saline): 101 % of control
- T/C (dose: 80.0 mg/kg/injection, schedule: Q01DX001 (ip), vehicle: saline): 97 % of control

SMILES: CCCCCCSC(=N)N
- T/C (dose: 12.5 mg/kg/injection, schedule: Q01DX001 (ip), vehicle: saline): 95 % of control
- T/C (dose: 12.5 mg/kg/injection, schedule: Q04DX002 (ip), vehicle: saline): 94 % of control and 97 % of control
- T/C (dose: 12.5 mg/kg/injection, schedule: Q04DX003 (ip), vehicle: saline): 119 % of control
- T/C (dose: 25.0 mg/kg/injection, schedule: Q01DX001 (ip), vehicle: saline): 100 % of control
- T/C (dose: 25.0 mg/kg/injection, schedule: Q04DX002 (ip), vehicle: saline): 94 % of control and 100 % of control
- T/C (dose: 25.0 mg/kg/injection, schedule: Q04DX003 (ip), vehicle: saline): 104 % of control
- T/C (dose: 50.0 mg/kg/injection, schedule: Q01DX001 (ip), vehicle: saline): 89 % of control
- T/C (dose: 50.0 mg/kg/injection, schedule: Q04DX002 (ip), vehicle: saline): 103 % of control and 106 % of control
- T/C [17]: 102 % of control

SMILES: CCc1ccccc1NC(=O)Nc1nccs1
- T/C [13]: 116 % of control
- T/C [14]: 110 % of control

SMILES: NCCN1C(c2ccccc2)C1c1ccccc1 (stereo not drawn)
- T/C [17]: 94 % of control
- T/C (dose: 100.0 mg/kg/injection, schedule: Q04DX003 (ip), vehicle: saline): 94 % of control and 105 % of control
- T/C (dose: 200.0 mg/kg/injection, schedule: Q04DX003 (ip), vehicle: saline): 103 % of control
- T/C (dose: 400.0 mg/kg/injection, schedule: Q04DX003 (ip), vehicle: saline): 100 % of control

SMILES: O=P(CCO)(c1ccccc1)c1ccccc1
- T/C [15]: 112 % of control
- T/C [16]: 101 % of control

SMILES: Cc1ccc(CNC(=O)NC(C)(C)C)cc1C
- T/C [3]: 103 % of control
- T/C [4]: 111 % of control
- T/C [5]: 100 % of control
